Entries after “also recorded” stand apart in the source; their conditions may differ.
Tests used:
A2780 cells = experiment: 5-day MTT cytotoxic assay, combination of VAL-083 with non-DNA targeting agents (p53 modulators); assay type: cell-based; conditions: for superadditivity / synergy in combination with VAL-083 (in words): A2780 (wild-type p53), 5-day MTT, agent combined with VAL-083, FIGS. 3-5
Text: Additive effect of [drug A+drug B]=FaA+(1−FaA)FaB
where FaA or FaB=fraction of cells affected (Fa) by drug A or B alone. Data, where appropriate, are provided as Mean±SE of N=3 or greater.

[1] = test system: p53-dependent response in A2780; experiment: Immunoblots 24 hr after drug exposure, p53-dependent response; assay type: cell-based; conditions: A2780, in combination with VAL-083 (DAG), FIGS. 6A and 6B
Method: For Western blotting, cells were lysed in EBC buffer (50 mM Tris-HCl, pH 8.0, 120 mM NaCl, 1% NP-40, and 1 mM EDTA) supplemented with phosphatase inhibitor and protease inhibitor. Cellular proteins were separated by SDS-PAGE and transferred onto PVDF membrane. After incubation with blocking buffer for 1 h, the membranes were incubated with designated primary antibodies overnight at 4° C. Then, Membranes were washed three times for 10 min and incubated with horseradish peroxidase-conjugated anti-mouse or anti-rabbit antibodies for 1-2 h. Membranes were washed with TBST three times and developed with ECL system (Pierce) according to the manufacturer's instruction.

[2] = test system: Ovarian A2780 tumor cells; experiment: 5-day MTT cytotoxicity, VAL-083 and/or PARP inhibitor, control siRNA cells (no BRCA1 kd); assay type: cell-based; conditions: A2780, in combination with dianhydrogalactitol (VAL-083)
Method: (§1) Cytotoxicity was determined by MTT assay using the standard 5-day drug exposure protocol.
(§2) Ovarian A2780 tumor cells were treated with control or BRCA1 siRNA in 6-well plates and 24 hr later were washed, typsinized and aliquoted to 96-well plates. […] After 5 days, the cells are processed for the MTT assay.

[3] = test system: A2780 cells with BRCA1 knockdown; experiment: 5-day MTT cytotoxicity, VAL-083 and/or PARP inhibitor, BRCA1-siRNA treated cells; conditions: A2780, BRCA1 siRNA vs control siRNA, based on inspection of Fa data
Method: as §1, §2

[4] = test system: ovarian cancer cell lines (A2780, A2780 p53-/-, 2780CP, OVCAR10, HEY, OVCA-433); conditions: wild type p53, p53 knocked out and mutant p53 lines; previously shown; cited from earlier work

Nc1cc(C(F)(F)F)c(-c2cc(N3CCOCC3)nc(N3CCOCC3)n2)cn1 [BKM120]
superadditivity / synergy in combination with VAL-083 (in words) (A2780 cells): did not result in superadditive activity

Cc1ncc(Cl)cc1NCc1ccc(C(=O)N[C@@H](CC2CCCC2)C(=O)NC2CC2)s1 [GSK2830371, (S)-5-(((5-Chloro-2-methylpyridin-3-yl)amino)methyl)-N-(3-cyclopentyl-1-(cyclopropylamino)-1-oxopropan-2-yl)thiophene-2-carboxamide]
upregulation of p53-dependent response (in words) [1]: synergistic upregulation of p53-dependent response
superadditivity / synergy in combination with VAL-083 (in words) (A2780 cells): substantial superadditivity and/or synergy

Cc1sc2c(c1C)C(c1ccc(Cl)cc1)=N[C@@H](CC(=O)OC(C)(C)C)c1nnc(C)n1-2 [JQ1]
superadditivity / synergy in combination with VAL-083 (in words) (A2780 cells): did not result in superadditive activity

C=CCn1c(=O)c2cnc(Nc3ccc(N4CCN(C)CC4)cc3)nc2n1-c1cccc(C(C)(C)O)n1 [MK1775]
superadditivity / synergy in combination with VAL-083 (in words) (A2780 cells): did not result in superadditive activity

O=C(c1cc(Cc2n[nH]c(=O)c3ccccc23)ccc1F)N1CCN(C(=O)C2CC2)CC1 [Olaparib, olaparib]
superadditivity of PARP inhibitor combined with VAL-083 (in words) [2]: super-additivity

CNCc1ccc(-c2[nH]c3cc(F)cc4c3c2CCNC4=O)cc1 [Rucaparib, rucaparib]
increase in cellular sensitivity by BRCA1 knockdown (kd) [3]: ~3.0 fold

O[C@H]([C@H](O)[C@@H]1CO1)[C@H]1CO1 [VAL-083, dianhydrogalactitol]
activity in ovarian cancer cell lines (in words) [4]: active in all cell lines tested

C[C@]1(c2nc3c(C(N)=O)cccc3[nH]2)CCCN1 [Veliparib, veliparib]
superadditivity of PARP inhibitor combined with VAL-083 (in words) [2]: not as effective

COc1ccc(C2=N[C@@H](c3ccc(Cl)cc3)[C@@H](c3ccc(Cl)cc3)N2C(=O)N2CCNC(=O)C2)c(OC(C)C)c1 [nutlin-3a, 4-[[(4S,5R)-4,5-Bis(4-chlorophenyl)-2-(2-isopropoxy-4-methoxyphenyl)-4,5-dihydroimidazol-1-yl]carbonyl]piperazin-2-one]
upregulation of p53-dependent response (in words) [1]: synergistic upregulation of p53-dependent response
superadditivity / synergy in combination with VAL-083 (in words) (A2780 cells): substantial superadditivity and/or synergy; also recorded: augmented the activity of dianhydrogalactitol
combination index (A2780 cells; A2780, nutlin-3a with VAL-083, range over ED75-ED95 (Table 3)): 0.10-0.15
